Series [1] has as its target Strep-Tactin® (mutein streptavidin, SEQ ID NO: 4) (Streptomyces avidinii, UniProt P22629, E68V/S69T/V71R). The note with it: general statement of the description, no experiment of the applicant; read-out: binding affinity KD for binding to Strep-Tactin®; cited from earlier work.
A further series deals with mTOR. Kind of series: Intracellular S6 phosphorylation (marker of mTOR inhibition) in engineered T cells. The format is cell-based, human. Conditions: live CD8+ T cells; 1 μM at stimulation (1 mM printed for later steps). The protocol:
(§1) CD4+ and CD8+ T cells were isolated by immunoaffinity-based enrichment from leukapheresis samples from human donor subjects. […] The T cells cultured with our without Compound 63 were incubated overnight (approximately 24 hr) at 37° C., and were then transduced in serum-free culture media with our without Compound 63 ([…]) with a lentiviral vector encoding an anti-CD19 CAR. […] Following transduction, the cells were incubated in serum free media without recombinant cytokines (basal media) and with or without Compound 63 (1 mM) and allowed to incubate at about 37.0° C. in an incubator for up to 96 hours after initiation of the stimulation with the anti-CD3/anti-CD28 oligomeric stimulatory reagent (until day 5 of the process). […] The cryofrozen engineered CD4+ and CD8+ T cells were thawed, and T cells were assessed for intracellular S6 phosphorylation, a ribosomal protein and marker of mTOR inhibition, and co-stained for surface expression of CD4 or CD8 and for CCR7 and CD45RA as markers of memory subsets. pS6 expression in live CD8+ T cells by memory subsets was shown by the expression of CCR7 and CD45RA as shown in FIG. 6A. As shown, incubation with Compound 63 decreased the mean fluorescence intensity of stimulated memory T cell subsets, […], indicating an inhibition of mTOR, while having no significant effect on the percentage or total number of viable cells over time.

Series [2] has as its system CD4+ and CD8+ T cells. Kind of series: Viability and live cell count of engineered T cell composition. In kind it is cell-based, human. Conditions: generated composition; produced with versus without compound. The protocol: as §1
Series [3] concerns CD4+ and CD8+ T cells. Kind of series: Caspase, CD27/CCR7 phenotype and intracellular cytokines of thawed engineered T cells. In kind it is cell-based, human. The protocol: CD4+ and CD8+ T cells were isolated by immunoaffinity-based enrichment from leukapheresis samples from human donor subjects. At day 1, isolated CD4+ and CD8+ T cells were mixed 1:1 and stimulated with an anti-CD3/anti-CD28 oligomeric stimulatory reagent generated as described in Example 1 in serum-free media supplemented with recombinant IL-2 (100 IU/mL), recombinant IL-7 (600 IU/mL), and recombinant IL-15 (100 IU/mL) with or without 1 μM of 2-(3-hydroxyphenyl)-9-(2-isopropylphenyl)-8-oxo-8,9-dihydro-7H-purine-6-carboxamide (Compound 63). The T cells cultured with our without Compound 63 were incubated overnight (approximately 24 hr) at 37° C., and were then transduced in serum-free culture media with our without Compound 63 ([…]) with a lentiviral vector encoding an anti-CD19 CAR. The CAR contained an scFv antigen-binding domain specific for CD19 (derived from FMC63), a CD28 transmembrane region, a 4-1BB costimulatory signaling region, and a CD3-zeta derived intracellular signaling domain. Following transduction, the cells were incubated in serum free media without recombinant cytokines (basal media) and with or without Compound 63 (1 mM) and allowed to incubate at about 37.0° C. in an incubator for up to 96 hours after initiation of the stimulation with the anti-CD3/anti-CD28 oligomeric stimulatory reagent (until day 5 of the process). […] Following incubation CD4+ and CD8+ T cells from each donor were harvested, formulated, and cryofrozen.
Thawed cells generated by the process described were assessed for a marker of apoptosis (e.g., percentage of caspase positive CAR-T cells), phenotypic profile, and ability to produce intracellular cytokines following stimulation with PMA/Ionomycin and a Golgi Inhibitor. […] Thawed cells also were stained for surface expression of CD27 and CCR7 by flow cytometry.

The next series relates to anti-CD19 CAR T cells. Kind of series: Long-term (12 days) stimulation with anti-idiotype antibody beads: expansion and survival. The format is cell-based, human. The note with it: anti-ID antibody beads. The protocol: CD4+ and CD8+ T cells were isolated by immunoaffinity-based enrichment from leukapheresis samples from human donor subjects. At day 1, isolated CD4+ and CD8+ T cells were mixed 1:1 and stimulated with an anti-CD3/anti-CD28 oligomeric stimulatory reagent generated as described in Example 1 in serum-free media supplemented with recombinant IL-2 (100 IU/mL), recombinant IL-7 (600 IU/mL), and recombinant IL-15 (100 IU/mL) with or without 1 μM of 2-(3-hydroxyphenyl)-9-(2-isopropylphenyl)-8-oxo-8,9-dihydro-7H-purine-6-carboxamide (Compound 63). The T cells cultured with our without Compound 63 were incubated overnight (approximately 24 hr) at 37° C., and were then transduced in serum-free culture media with our without Compound 63 ([…]) with a lentiviral vector encoding an anti-CD19 CAR. The CAR contained an scFv antigen-binding domain specific for CD19 (derived from FMC63), a CD28 transmembrane region, a 4-1BB costimulatory signaling region, and a CD3-zeta derived intracellular signaling domain. […]
To further assess the functional activity of the cells, the generated T cell compositions were stimulated long-term over 12 days with beads conjugated with an anti-idiotype (ID) antibody against the anti-CD19 CAR, and expansion and survival of the cells were monitored (FIG. 7F, left panel) and total expansion metric calculated by area under the curve (FIG. 7F, right panel).

Chain of Strep-Tactin® (mutein streptavidin, SEQ ID NO: 4) (P22629 other isoform, or with tags, fused parts or gaps E68V/S69T/V71R): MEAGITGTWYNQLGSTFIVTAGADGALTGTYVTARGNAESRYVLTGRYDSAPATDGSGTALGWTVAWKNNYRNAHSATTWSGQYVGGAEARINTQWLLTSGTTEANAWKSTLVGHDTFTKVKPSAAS

For orientation: Kd means the free concentration of one partner at which half of the binding sites on the other are occupied at equilibrium, for simple one-to-one binding. Regarding WSHPQFEK [Strep-Tag® II], in series [1], the Kd was about 1 µM.
For `CC(C)c1ccccc1-n1c(=O)[nH]c2c(C(N)=O)nc(-c3cccc(O)c3)nc21` [Compound 63, 2-(3-hydroxyphenyl)-9-(2-isopropylphenyl)-8-oxo-8,9-dihydro-7H-purine-6-carboxamide], the “pS6 mean fluorescence intensity in memory T cell subsets (Temra, Tem, Tcm)” value in the series with mTOR is listed as “decreased”. In the series on CD4+ and CD8+ T cells [2], the percent viable cells result is “did not impact” and the total live cells entry was “did not impact”. Moreover, the “phenotypic subset profile by CD27 and/or CCR7 expression” value with CD4+ and CD8+ T cells [3] (CD8+ and CD4+ T cells) is “did not substantially alter”. Also, in the series with CD4+ and CD8+ T cells [3] (after PMA/Ionomycin and Golgi inhibitor, CD8+ and CD4+ T cells), the “level of intracellular cytokines IL2, IFNg, or TNF” value is listed as “substantially improved”. For the same compound, in the series on CD4+ and CD8+ T cells [3] (thawed CAR-T cells, with versus without compound), the intracellular caspase expression entry was “less”. Moreover, in the series with anti-CD19 CAR T cells, the “function (expansion and survival) after long-term CAR-specific stimulation” value was “improved function”.

The values are drawn from patent US12522660B2, “Methods for selection and stimulation of cells and apparatus for same” (C3S2 GMBH, priority 2018, dated 2026).
